Measurements taken from ChEMBL document CHEMBL1201862, “PubChem BioAssay data set” (2004).
Active and inactive are the calls of the source. Cut-off read from the data, not from the text of the source, for most assays here: actives have a measured IC50 and inactives only a lower limit.

Key:
[1] = molecular target: T1, Tyrosine-protein phosphatase non-receptor type 7 (Homo sapiens, UniProt P35236); assay type: functional
T1 sequence (P35236 whole entry): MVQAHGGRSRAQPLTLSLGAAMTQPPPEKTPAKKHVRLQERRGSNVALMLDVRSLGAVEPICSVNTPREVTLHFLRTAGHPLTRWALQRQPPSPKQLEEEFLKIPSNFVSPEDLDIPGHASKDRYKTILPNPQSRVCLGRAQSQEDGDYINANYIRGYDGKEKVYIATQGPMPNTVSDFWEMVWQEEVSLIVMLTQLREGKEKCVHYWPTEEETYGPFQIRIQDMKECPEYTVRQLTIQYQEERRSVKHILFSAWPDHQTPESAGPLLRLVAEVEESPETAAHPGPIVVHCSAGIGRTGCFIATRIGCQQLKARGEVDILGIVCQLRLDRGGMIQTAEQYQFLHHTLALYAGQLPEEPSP

[2] = molecular target: T2, Tyrosine-protein phosphatase non-receptor type 22 (Homo sapiens, UniProt Q9Y2R2); assay type: functional
T2 sequence (Q9Y2R2 whole entry): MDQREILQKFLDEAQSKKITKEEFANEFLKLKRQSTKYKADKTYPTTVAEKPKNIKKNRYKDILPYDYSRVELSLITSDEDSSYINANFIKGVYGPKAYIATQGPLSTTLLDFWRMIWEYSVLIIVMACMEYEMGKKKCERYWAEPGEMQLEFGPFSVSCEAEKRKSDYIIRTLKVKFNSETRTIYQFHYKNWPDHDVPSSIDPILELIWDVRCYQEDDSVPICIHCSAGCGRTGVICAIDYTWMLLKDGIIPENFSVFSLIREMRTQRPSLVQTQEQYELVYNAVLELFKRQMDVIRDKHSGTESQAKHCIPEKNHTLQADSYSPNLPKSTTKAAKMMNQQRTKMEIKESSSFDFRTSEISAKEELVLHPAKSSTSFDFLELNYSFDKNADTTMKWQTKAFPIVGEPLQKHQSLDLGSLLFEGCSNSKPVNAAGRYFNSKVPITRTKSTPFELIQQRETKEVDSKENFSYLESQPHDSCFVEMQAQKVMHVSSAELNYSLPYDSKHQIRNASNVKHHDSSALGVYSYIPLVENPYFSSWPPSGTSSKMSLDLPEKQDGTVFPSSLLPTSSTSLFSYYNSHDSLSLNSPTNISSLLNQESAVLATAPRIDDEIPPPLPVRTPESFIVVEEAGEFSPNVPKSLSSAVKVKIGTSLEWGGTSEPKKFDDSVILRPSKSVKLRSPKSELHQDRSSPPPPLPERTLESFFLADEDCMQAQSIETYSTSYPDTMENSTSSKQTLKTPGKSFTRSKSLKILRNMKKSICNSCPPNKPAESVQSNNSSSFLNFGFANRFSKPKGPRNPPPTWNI

[3] = molecular target: T2, Tyrosine-protein phosphatase non-receptor type 22; assay type: functional; remark: listed apart in the source
HEK293 [4] = experiment: cells; settings: Homo sapiens
[5] = ZM109 Env clade C HIV-1 fusion inhibitors, dose response, HeLa effector, CEM target cells, luciferase, cherry-pick (AID 652058); assay type: functional, cell-based
[6] = off-target signal loss in HeLa-CEM21 co-culture – HeLa F-luc CTL cells, cherry-picked, counter-screen for HIV-1 Env fusion inhibitor project, dose response (AID 652040); assay type: functional, cell-based;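 note: potency for signal decrease marking cytotoxic or nonspecific inhibition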
HEK293 [7] = experiment: cells; settings: Homo sapiens; remark: listed apart in the source
[8] = inhibitors of clade B AD8 Env fusion, dose response, cell-based, cherry-pick (AID 652062); assay type: functional;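 note: luciferase signal from cell-cell fusion driven by HIV-1 clade B AD8 Env; potency is for inhibitors of fusion seen as a drop in luminescence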
[9] = inhibitors of HIV Env-driven cell fusion, dose response, cherry-pick (AID 652057); assay type: functional, cell-based
[10] = molecular target: T3, E3 ubiquitin-protein ligase XIAP (Homo sapiens, UniProt P98170); experiment: XIAP antagonists, biochemical, IAP family, fluorescence polarization (AID 1018); assay type: functional
[11] = molecular target: T3, E3 ubiquitin-protein ligase XIAP; experiment: Counter Screen using XIAP-Bir3 for Chemical Antagonists of Bir1/2 domains of IAP-family anti-apoptotic proteins. [Related pubchem assays (depositor defined):AID1018, AID1449, AID1514, AID1638, AID1749, AID1750, AID488957, AID488963]
[12] = molecular target: T2, Tyrosine-protein phosphatase non-receptor type 22; experiment: LYP (PTPN22) phosphatase inhibitor potency, SAR follow-up, biochemical, pCAP fluorogenic substrate, fluorescence, set 3 (AID 449727); assay type: functional
[13] = molecular target: T2, Tyrosine-protein phosphatase non-receptor type 22; experiment: SAR LYP1 Fluorescent Assay using pCAP substrate for In Vitro dose response studies - Set 2. [Related pubchem assays (depositor defined):AID1779, AID1784, AID2135, AID449727]; assay type: functional
[14] = molecular target: T2, Tyrosine-protein phosphatase non-receptor type 22; experiment: SAR LYP1 Fluorescent Assay using OMFP substrate for In Vitro dose response studies - Set 2. [Related pubchem assays (depositor defined):AID1779, AID1784, AID2140, AID449726, AID488869]; assay type: functional
[15] = molecular target: T2, Tyrosine-protein phosphatase non-receptor type 22; experiment: SAR LYP1 Fluorescent Assay using OMFP substrate for In Vitro dose response studies - Set 3. [Related pubchem assays (depositor defined):AID1779, AID1784, AID2140, AID2686]; assay type: functional
[16] = molecular target: Tyrosine-protein phosphatase non-receptor type 12 (Homo sapiens, UniProt Q05209); experiment: SAR Selectivity Analysis of small molecule inhibitors of PEST using pCAP in a fluorescence assay. [Related pubchem assays (depositor defined):AID1779, AID1784, AID2135]; assay type: functional
[17] = molecular target: T1, Tyrosine-protein phosphatase non-receptor type 7; experiment: HePTP (PTPN7) phosphatase inhibitor potency, SAR follow-up, biochemical, set 2 (AID 449736); assay type: functional

T3 sequence (P98170 whole entry): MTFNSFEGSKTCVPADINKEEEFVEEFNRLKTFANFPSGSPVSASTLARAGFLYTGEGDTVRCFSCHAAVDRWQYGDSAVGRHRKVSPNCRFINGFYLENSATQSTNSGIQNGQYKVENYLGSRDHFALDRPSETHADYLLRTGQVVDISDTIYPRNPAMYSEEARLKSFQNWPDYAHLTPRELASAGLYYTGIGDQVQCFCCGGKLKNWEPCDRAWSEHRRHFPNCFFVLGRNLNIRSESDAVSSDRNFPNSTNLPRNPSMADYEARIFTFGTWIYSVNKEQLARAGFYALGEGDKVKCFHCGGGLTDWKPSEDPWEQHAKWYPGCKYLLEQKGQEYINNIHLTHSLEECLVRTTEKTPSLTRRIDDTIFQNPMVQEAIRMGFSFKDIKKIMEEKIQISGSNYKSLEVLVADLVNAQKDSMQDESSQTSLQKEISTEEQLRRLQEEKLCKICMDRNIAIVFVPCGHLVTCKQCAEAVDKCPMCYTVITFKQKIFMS
Sequence of Tyrosine-protein phosphatase non-receptor type 12 (Q05209 whole entry): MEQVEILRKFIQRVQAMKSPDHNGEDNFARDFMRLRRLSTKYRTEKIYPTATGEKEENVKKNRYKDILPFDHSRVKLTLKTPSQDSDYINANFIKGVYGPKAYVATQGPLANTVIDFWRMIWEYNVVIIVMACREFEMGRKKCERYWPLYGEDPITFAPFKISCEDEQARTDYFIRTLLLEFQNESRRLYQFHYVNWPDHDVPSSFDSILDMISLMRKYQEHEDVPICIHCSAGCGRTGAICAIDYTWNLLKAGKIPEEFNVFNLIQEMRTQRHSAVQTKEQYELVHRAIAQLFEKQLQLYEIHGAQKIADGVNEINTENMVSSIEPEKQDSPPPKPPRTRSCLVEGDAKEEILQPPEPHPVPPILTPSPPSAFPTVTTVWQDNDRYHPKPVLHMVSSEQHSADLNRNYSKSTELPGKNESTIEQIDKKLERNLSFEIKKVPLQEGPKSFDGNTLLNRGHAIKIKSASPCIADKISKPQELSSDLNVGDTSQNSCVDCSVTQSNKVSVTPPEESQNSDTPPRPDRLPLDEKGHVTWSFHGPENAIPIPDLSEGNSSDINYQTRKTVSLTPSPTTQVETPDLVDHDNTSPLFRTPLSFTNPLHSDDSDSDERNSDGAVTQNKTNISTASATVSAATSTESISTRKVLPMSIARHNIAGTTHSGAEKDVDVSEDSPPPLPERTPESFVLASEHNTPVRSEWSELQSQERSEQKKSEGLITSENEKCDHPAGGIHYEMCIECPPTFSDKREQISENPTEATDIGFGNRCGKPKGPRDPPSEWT

SMILES: O=c1c(-c2ccccc2)c(O)c2c(n1-c1ccccc1)CCCC2
- IC50 [1]: > 79.4 µM (inactive)
- IC50 [2]: > 79.4 µM (inactive)
- IC50 [3]: > 79.4 µM (inactive)

SMILES: CCS(=O)(=O)N1Cc2ccccc2CC1C(=O)NCC12CC3CC(CC(C3)C1)C2 (configuration not stated)
- EC50 (HEK293 [4]): > 59.7 µM (inactive)
- AC50 [5]: 2.86 µM (active)
- AC50 [6]: 7.35 µM (active)
- EC50 (HEK293 [7]): > 59.7 µM (inactive)
- AC50 [8]: 19.8 µM (active)
- AC50 [9]: 4.37 µM (active)

SMILES: COC(=O)c1ccc(C(=O)NC(=S)Nc2nc3c(s2)CCCC3)cc1
- IC50 [10]: > 100 µM (not active)
- IC50 [11]: > 100 µM (inactive)

SMILES: O=C(O)COc1ccc2c(c1)O/C(=C\c1cccs1)C2=O
- IC50 [12]: > 100 µM (inactive)
- IC50 [13]: 81.2 µM (active)
- IC50 [14]: > 100 µM (inactive)
- IC50 [15]: > 100 µM (inactive)
- IC50 [16]: > 100 µM (inactive)
- IC50 [17]: > 100 µM (inactive)
